Values joined by “and” are separate entries in the source; they are usually repeats but may differ in a detail not shown here. Identical values can stand only once.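 Five compound concentrations were applied to cells in 96-well plates for 48 hours; endpoints were derived by simple linear interpolation of the resulting dose-response curve. GI50 = concentration required for 50% inhibition of growth. TGI denotes the concentration required for complete inhibition of growth.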
Experiments:
Assay in all cases: NCI tumour cell line growth inhibition, 48 h
[1] = system: MDA-N
[2] = system: SN12K1 renal
[3] = system: P388 leukemia
[4] = system: P388/ADR leukemia

Row | Compound | TGI [1] | GI50 [1] [µM] | TGI [2] [µM] | TGI [3] [µM] | TGI [4] [µM]
1 | CCOc1ccc2nc(NC(=O)C(=O)C(c3cnc4ccccc4n3)[N+](=O)[O-])sc2c1 (stereo unspecified) | > 100 µM |  |  |  | 
2 | CN(C)CCNC(=O)c1ccc(NC(=O)c2nc([N+](=O)[O-])cn2C)cc1 | > 100 µM |  |  |  | 
3 | Cc1cc(C)c(-n2c(-c3ccc(Br)cc3)cs/c2=N\N=C2C=C(C(C)(C)C)C(=O)C(C(C)(C)C)=C2)c(C)c1 | > 100 µM |  |  |  | 
4 | NCCCNCCCCNC(=O)C(O)NC(=O)CCCCCCN=C(N)N (stereo unspecified) | > 5000 µM | > 750 | 750 | 511 | 750
5 | COc1cc2c(cc1OC)C13CCN4CC5CCOC6CC(=O)N2C1C6C5CC43 (stereo unspecified) | > 100 µM |  |  |  | 
6 | CCCCCCCc1cc2c3c(nc4ccccc42)C(=O)c2cccnc2-c3n1 | 9.12 µM | 4.44 |  |  | 
7 | CN(Cc1cc(C(C)(C)C)cc(Br)c1O)Cc1cc(C(C)(C)C)cc(Br)c1O | 15.9 µM |  |  |  | 
8 | C=C(c1ccccc1)[C@@]1(O)CC[C@@H]1N(CC#N)Cc1ccccc1 | 40 µM |  |  |  | 
9 | COc1cccc(/C=N/C(/N=C/c2cccc(OC)c2O)c2cccc(OC)c2O)c1O | > 100 µM |  |  |  | 
10 | COC(=O)/C=C/c1cc2c(cc1-c1c(C(=O)O)cc(OC)c(OC)c1OC)OCO2 | > 10 µM |  |  |  | 
11 | CC(C)CC(NC(=O)OC(C)(C)C)C(=O)Nc1ccc(Nc2nc(F)nc(-c3c4ccccc4cn3C)n2)cc1 (stereo unspecified) | > 100 µM |  |  |  | 
12 | S=P(N1CC1)(N1CC1)N1CC1 | 426 µM and 671 µM | 257 | 373 | 328 | 351
